Data taken from US20100196469A1, “Pharmaceutical Formulation containing an HMG-COA Reductase Inhibitor and method for the preparation thereof” (PHARMATHEN S.A., priority 2007, published 2010).
Counter-ions that a name gives are not always drawn.

Columns and labels:
Type in all cases: physicochemical
[1] = Compatibility test of Atorvastatin alone and Atorvastatin with Attapulgite at 40° C./75% RH (impurities)
[2] = Stability of unpacked tablets at 40° C.±2° C. and 75%±5% RH (impurities); conditions: 40°/75 RH
Description: (§1) One of the main objects of the present invention was to prepare a product with acceptable stability. For this reason 3 batches of each composition were exposed to normal, intermediate and accelerated stability studies according to the current ICH guidelines.
The tablets of the above compositions were exposed at a temperature of 40° C.±2° C. and relative humidity of 75%±5% without being packed in any type of container or blister. The tablets were tested in predetermined time intervals. The results for each composition are described in the stability table (TABLE 1).

[3] = Stability after preparation and after 3 months in HDPE containers, normal and intermediate conditions (impurities); conditions: for Atorvastatin Amide / Desfluoro: limit NMT 0.3%; for Atorvastatin Diepoxide: limit NMT 0.6%; for Diketo1,2-Diol + Diketoepoxide: limit NMT 1.20%; for Lactone: limit NMT 2%; for Total: total impurities; for Unknown: unknown impurity
Description: as §1
Subsequently, the tablets of compositions 2 were packed into white opaque, HDPE plastic […] C.±2° C. and relative humidity of 65%±5% for intermediate conditions. The results for composition 2 and of the active ingredient directly after preparation and after 3 months stability are described in the stability table below (TABLE 3).

## CC(C)c1c(C(=O)Nc2ccccc2)c(-c2ccccc2)c(-c2ccc(F)cc2)n1CC[C@@H](O)C[C@@H](O)CC(=O)O (relative stereo) [Atorvastatin, [R—(R*,R*)]-2-(4-fluorophenyl)-b,d-dihydroxy-5-(1-methylethyl)-3-phenyl-4[(phenylamino)carbonyl]-1H -pyrrole-1-heptanoic acid, calcium salt (2:1) trihydrate]
[1]; limit 1.20%
  Diketo1,2-Diol + Diketoepoxide: 0.39%
[1]; limit NMT 0.3%
  Atorvastatin Amide: 0.05%
  Desfluoro: 0.07%
  Methyl Ester: 0.01%
[1]; limit NMT 0.6%
  Atorvastatin Diepoxide: 0.20%
[1]; limit NMT 2%
  Lactone: 0.34%
[1]; total impurities
  Total: 1.29%
[2]
  Atorvastatin Amide: 0.07%
  Atorvastatin Diepoxide: 0.34%
  Desfluoro: 0.08%
  Diketo1,2-Diol + Diketoepoxide: 0.69%
  Lactone: 0.45%
[2]; total impurities
  Total: 1.87%
[3]; 0 months
  Atorvastatin Amide: 0.06%
  Desfluoro: 0.06%
  Atorvastatin Diepoxide: 0.25%
  Diketo1,2-Diol + Diketoepoxide: 0.84%
  Lactone: 0.07%
  Total: 1.69%
  Unknown: 0.34%
[3]; 3 months 25° C./60% RH
  Atorvastatin Amide: 0.06%
  Desfluoro: 0.03%
  Atorvastatin Diepoxide: 0.30%
  Diketo1,2-Diol + Diketoepoxide: 0.92%
  Lactone: 0.05%
  Total: 1.96%
  Unknown: 0.38%
[3]; 3 months 30° C./65% RH
  Atorvastatin Amide: 0.06%
  Desfluoro: 0.03%
  Atorvastatin Diepoxide: 0.38%
  Diketo1,2-Diol + Diketoepoxide: 1.10%
  Lactone: 0.05%
  Total: 2.12%
  Unknown: 0.4%
